According to ChEMBL document CHEMBL5506020 (J Med Chem, 2024):
Activity calls are given as the source filed them. The calls are words filed in the database; no cut-off is given here.

Assays:
MV4-11 [1] = test: Antiproliferative activity against human MV4-11 cells incubated for 120 hrs by Cell-Titer Glo assay; settings: MV4-11, 120 h
MOLM-13 [2] = test: Antiproliferative activity against human MOLM-13 cells incubated for 72 hrs by Cell-Titer Glo assay; settings: MOLM-13, 72 h
[3] = Antiproliferative activity against human MOLM16 cells incubated for 72 hrs by Cell-Titer Glo assay; settings: MOLM16, 72 h
MOLM-13 [4] = test: Downregulation of c-Myc protein level in human MOLM-13 cells at 50 nM incubated for 24 hrs by Western blotting analysis; type: functional, cell-based
MV4-11 [5] = test: Downregulation of c-Myc protein level in human MV4-11 cells at 50 nM incubated for 24 hrs by Western blotting analysis; type: functional, cell-based
MOLM-16 = test: Downregulation of c-Myc protein level in human MOLM16 cells at 50 nM incubated for 24 hrs by Western blotting analysis; type: functional, cell-based
KG-1 = test: Antiproliferative activity against human KG-1 cells
THP-1 = test: Antiproliferative activity against human THP-1 cells
EOL1 = test: Antiproliferative activity against human EOL1 cells
MV4-11 [6] = test: Antitumor activity against human MV4-11 cells xenografted in NOD-SCID mouse assessed as tumor growth inhibition at 10 mg/kg, po QD for 2 weeks; type: functional; settings: MV4-11, 336 h, read-out: TGI

| IC50 (MV4-11 [1]) | IC50 (MOLM-13 [2]) | IC50 (THP-1) | Structure (SMILES) | IC50 [3] | Activity (MOLM-13 [4]) | Activity (MV4-11 [5]) | Activity (MOLM-16) | IC50 (KG-1) | IC50 (EOL1) | inhibition in vivo at 10 mg/kg (MV4-11 [6]) |
| --- | --- | --- | --- | --- | --- | --- | --- | --- | --- | --- |
| 86.7 nM | > 1000 nM |  | Cc1noc(C)c1-c1ccc2c(c1)nc([C@@H]1CCCC(=O)N1c1ccc(F)c(F)c1)n2C1CCN(CC(=O)Nc2ccc(-c3ccc(CNc4cccc5c4C(=O)N(C4CCC(=O)N(C)C4=O)C5=O)cc3)nc2)CC1 (stereo partly specified) | 200 nM |  |  |  |  |  |  |
| 5.7 nM | 137 nM |  | Cc1noc(C)c1-c1ccc2c(c1)nc([C@@H]1CCCC(=O)N1c1ccc(F)c(F)c1)n2C1CCN(CC(=O)Nc2ccc(-c3ccc(CNc4cccc5c4C(=O)N(C4CCC(=O)NC4=O)C5=O)cc3)cc2)CC1 (stereo partly specified) | 14.4 nM | Active | Active | Active |  |  |  |
| 20.4 nM | 102 nM | < 3000 nM | CO[C@H]1CC[C@H](n2c([C@@H]3CCCC(=O)N3c3ccc(F)c(F)c3)nc3cc(-c4c(C)noc4C)ccc32)CC1 [INOBRODIB] | 12.9 nM |  |  |  | < 3000 nM | < 3000 nM | 65% |
